# Publication PMC5218480 (PLoS ONE, 2017)
# System: MV-4-11 cells
# Experiment: Gene expression microarray analysis (Affymetrix PrimeView) and GSEA
# Format: cell-based, human
# Set-up: RFU PODN (11730768_x_at) / Fold change /veh PODN (11730768_x_at) / RFU LINC00158 (11744669_a_at) / Fold change /veh LINC00158 (11744669_a_at) / RFU DUSP10 (11751237_a_at) / Fold change /veh DUSP10 (11751237_a_at) / RFU ID3 (11757404_x_at) / Fold change /veh ID3 (11757404_x_at) / RFU PLEKHG5 (11737974_s_at) / Fold change /veh PLEKHG5 (11737974_s_at) / RFU LRRC4B (11730491_at) / Fold change /veh LRRC4B (11730491_at) / RFU GIMAP4 (11747438_a_at) / Fold change /veh GIMAP4 (11747438_a_at) / RFU KRT8 (11758183_x_at) / Fold change /veh KRT8 (11758183_x_at) / RFU CNN1 (11734310_a_at) / Fold change /veh CNN1 (11734310_a_at) / RFU VPS37D (11726825_at) / Fold change /veh VPS37D (11726825_at) / RFU C10orf10 (11716522_x_at) / Fold change /veh C10orf10 (11716522_x_at) / RFU KIR2DL2 /// KIR2DL4 /// KIR2DL5A /// KIR2DL5B /// KIR2DS1 /// KIR2DS2 /// KIR2DS3 /// KIR2DS4 /// KIR3DL3 /// KIR3DL3 /// KIR3DS1 (11738374_at) / Fold change /veh KIR2DL2 /// KIR2DL4 /// KIR2DL5A /// KIR2DL5B /// KIR2DS1 /// KIR2DS2 /// KIR2DS3 /// KIR2DS4 /// KIR3DL3 /// KIR3DL3 /// KIR3DS1 (11738374_at) / RFU C1QL1 (11718748_at) / Fold change /veh C1QL1 (11718748_at) / RFU TMPRSS4 (11747572_a_at) / Fold change /veh TMPRSS4 (11747572_a_at) / RFU HAMP (11756126_x_at) / Fold change /veh HAMP (11756126_x_at) / RFU RNFT2 (11725882_a_at) / Fold change /veh RNFT2 (11725882_a_at) / RFU NR4A2 (11747474_a_at) / Fold change /veh NR4A2 (11747474_a_at) / RFU ABCC12 (11746883_a_at) / Fold change /veh ABCC12 (11746883_a_at) / RFU TMEM136 (11760407_x_at) / Fold change /veh TMEM136 (11760407_x_at) / RFU CLDN22 /// WWC2 (11732394_at) / Fold change /veh CLDN22 /// WWC2 (11732394_at) / RFU HLA-DPB1 (11760878_x_at) / Fold change /veh HLA-DPB1 (11760878_x_at) / RFU SPINT1 (11716480_a_at) / Fold change /veh SPINT1 (11716480_a_at) / RFU GAP43 (11754022_s_at) / Fold change /veh GAP43 (11754022_s_at) / RFU A4GNT (11735810_at) / Fold change /veh A4GNT (11735810_at) / RFU PRB3 (11715151_x_at) / Fold change /veh PRB3 (11715151_x_at) / RFU TUBB4B (11761932_at) / Fold change /veh TUBB4B (11761932_at) / RFU CAPN14 (11732068_a_at) / Fold change /veh CAPN14 (11732068_a_at) / RFU TMCC2 (11721928_a_at) / Fold change /veh TMCC2 (11721928_a_at) / RFU IRGQ (11745062_a_at) / Fold change /veh IRGQ (11745062_a_at) / RFU FAM174B (11720279_a_at) / Fold change /veh FAM174B (11720279_a_at) / RFU TMPRSS4 (11748680_a_at) / Fold change /veh TMPRSS4 (11748680_a_at) / RFU FAM212B (11763350_a_at) / Fold change /veh FAM212B (11763350_a_at) / RFU PLEKHG5 (11743358_a_at) / Fold change /veh PLEKHG5 (11743358_a_at) / RFU ZSCAN30 (11745921_a_at) / Fold change /veh ZSCAN30 (11745921_a_at) / RFU CMKLR1 (11741424_a_at) / Fold change /veh CMKLR1 (11741424_a_at) / RFU LOC101060620 /// MAPK8IP1 (11723275_at) / Fold change /veh LOC101060620 /// MAPK8IP1 (11723275_at) / RFU SPTSSB (11747773_x_at) / Fold change /veh SPTSSB (11747773_x_at) / RFU PRSS12 (11739890_at) / Fold change /veh PRSS12 (11739890_at) / RFU BIN1 (11741810_x_at) / Fold change /veh BIN1 (11741810_x_at) / RFU WNT11 (11732464_a_at) / Fold change /veh WNT11 (11732464_a_at) / RFU C10orf10 (11716521_a_at) / Fold change /veh C10orf10 (11716521_a_at) / RFU C5orf56 (11738089_at) / Fold change /veh C5orf56 (11738089_at) / RFU CYB561 (11721691_x_at) / Fold change /veh CYB561 (11721691_x_at) / RFU ANKRD19P (11752326_a_at) / Fold change /veh ANKRD19P (11752326_a_at) / RFU OR2T12 /// OR2T33 /// OR2T8 (11738714_s_at) / Fold change /veh OR2T12 /// OR2T33 /// OR2T8 (11738714_s_at) / RFU VCAN (11748164_a_at) / Fold change /veh VCAN (11748164_a_at) / RFU JSRP1 (11732532_at) / Fold change /veh JSRP1 (11732532_at) / RFU KRTAP10-11 (11738290_x_at) / Fold change /veh KRTAP10-11 (11738290_x_at) / RFU MYO3A (11730013_a_at) / Fold change /veh MYO3A (11730013_a_at) / RFU EBF3 (11725865_a_at) / Fold change /veh EBF3 (11725865_a_at) / RFU CAMK2N1 (11719241_x_at) / Fold change /veh CAMK2N1 (11719241_x_at) / RFU C5orf56 (11738088_a_at) / Fold change /veh C5orf56 (11738088_a_at) / RFU OLFML3 (11715873_a_at) / Fold change /veh OLFML3 (11715873_a_at) / RFU LOC100653217 /// NTM (11731650_a_at) / Fold change /veh LOC100653217 /// NTM (11731650_a_at) / RFU MAPK11 (11762145_a_at) / Fold change /veh MAPK11 (11762145_a_at) / RFU FIZ1 (11724087_x_at) / Fold change /veh FIZ1 (11724087_x_at) / RFU OASL (11726364_x_at) / Fold change /veh OASL (11726364_x_at) / RFU SOX15 (11748057_x_at) / Fold change /veh SOX15 (11748057_x_at) / RFU CD79A (11719716_a_at) / Fold change /veh CD79A (11719716_a_at) / RFU HIST1H1D (11736915_at) / Fold change /veh HIST1H1D (11736915_at) / RFU CASKIN2 (11723855_a_at) / Fold change /veh CASKIN2 (11723855_a_at) / RFU LOC730098 (11760151_x_at) / Fold change /veh LOC730098 (11760151_x_at) / RFU OR4N2 (11742367_at) / Fold change /veh OR4N2 (11742367_at) / RFU PRRT2 (11749266_a_at) / Fold change /veh PRRT2 (11749266_a_at) / RFU SNX32 (11753110_a_at) / Fold change /veh SNX32 (11753110_a_at) / RFU CDHR5 (11726645_a_at) / Fold change /veh CDHR5 (11726645_a_at) / RFU RCAN1 (11760418_a_at) / Fold change /veh RCAN1 (11760418_a_at) / RFU FAM167A (11723789_a_at) / Fold change /veh FAM167A (11723789_a_at) / RFU FAM26E (11764081_at) / Fold change /veh FAM26E (11764081_at) / RFU ISYNA1 (11749810_s_at) / Fold change /veh ISYNA1 (11749810_s_at) / RFU ACY1 (11761880_at) / Fold change /veh ACY1 (11761880_at) / RFU 11764098_at / Fold change /veh 11764098_at / RFU SAMD14 (11745864_x_at) / Fold change /veh SAMD14 (11745864_x_at) / RFU NPB (11741838_a_at) / Fold change /veh NPB (11741838_a_at) / RFU TMPRSS6 (11731388_a_at) / Fold change /veh TMPRSS6 (11731388_a_at) / RFU KRTAP10-2 (11738614_at) / Fold change /veh KRTAP10-2 (11738614_at) / RFU ARHGAP8 /// PRR5-ARHGAP8 (11727945_x_at) / Fold change /veh ARHGAP8 /// PRR5-ARHGAP8 (11727945_x_at) / RFU KRTAP5-7 /// NADSYN1 (11734609_at) / Fold change /veh KRTAP5-7 /// NADSYN1 (11734609_at) / RFU RASL12 (11751679_a_at) / Fold change /veh RASL12 (11751679_a_at) / RFU CDKN2B (11736163_a_at) / Fold change /veh CDKN2B (11736163_a_at) / RFU PRF1 (11729649_at) / Fold change /veh PRF1 (11729649_at) / RFU, ZNF638 /// ZNF638-IT1 / Fold change vs veh, ZNF638 /// ZNF638-IT1 / RFU, PANK3 / Fold change vs veh, PANK3 / RFU, SH3YL1 / Fold change vs veh, SH3YL1 / RFU, ZEB2 / Fold change vs veh, ZEB2 / RFU, NRIP1 / Fold change vs veh, NRIP1 / RFU, PTTG1IP / Fold change vs veh, PTTG1IP / RFU, CAPN2 / Fold change vs veh, CAPN2 / RFU, MED14 / Fold change vs veh, MED14 / RFU, SNORA58 / Fold change vs veh, SNORA58 / RFU, C1orf63 / Fold change vs veh, C1orf63 / RFU, LRRFIP1 / Fold change vs veh, LRRFIP1 / RFU, NDUFAF7 / Fold change vs veh, NDUFAF7 / RFU, SLC12A2 / Fold change vs veh, SLC12A2 / RFU, IBTK / Fold change vs veh, IBTK / RFU, ESF1 / Fold change vs veh, ESF1 / Fold change vs veh, TMEM50B / RFU, TAOK1 / Fold change vs veh, TAOK1 / RFU, ACBD3 / Fold change vs veh, ACBD3 / RFU, TMA16 / Fold change vs veh, TMA16 / RFU, RWDD3 / Fold change vs veh, RWDD3 / RFU, BCAT1 / Fold change vs veh, BCAT1 / RFU, EDEM3 / Fold change vs veh, EDEM3 / RFU, TMEM33 / Fold change vs veh, TMEM33 / RFU, WDR75 / Fold change vs veh, WDR75 / RFU, AHCTF1 / Fold change vs veh, AHCTF1 / RFU, TFRC / Fold change vs veh, TFRC / RFU, ZDHHC17 / Fold change vs veh, ZDHHC17 / RFU, NOM1 / Fold change vs veh, NOM1 / RFU, ARL8B / Fold change vs veh, ARL8B / RFU, ZBTB11 / Fold change vs veh, ZBTB11 / RFU, TAMM41 / Fold change vs veh, TAMM41 / RFU, KIAA1704 /// LOC100996395 / Fold change vs veh, KIAA1704 /// LOC100996395 / RFU, ING1 / Fold change vs veh, ING1 / RFU, TRMT61B / Fold change vs veh, TRMT61B / RFU, FUBP3 / Fold change vs veh, FUBP3 / RFU, TP53 / Fold change vs veh, TP53 / RFU, TNKS2 / Fold change vs veh, TNKS2 / RFU, ZFP14 / Fold change vs veh, ZFP14 / RFU, ACTR2 / Fold change vs veh, ACTR2 / RFU, PPP3R1 / Fold change vs veh, PPP3R1 / RFU, PIK3R1 / Fold change vs veh, PIK3R1 / RFU, HNRNPA1 / Fold change vs veh, HNRNPA1 / RFU, RNF170 / Fold change vs veh, RNF170 / RFU, ZNF28 / Fold change vs veh, ZNF28 / RFU, RNGTT / Fold change vs veh, RNGTT / RFU, OGT / Fold change vs veh, OGT / RFU, BRD1 / Fold change vs veh, BRD1 / RFU, MARS / Fold change vs veh, MARS / RFU, ZNF655 / Fold change vs veh, ZNF655 / RFU, FAHD1 / Fold change vs veh, FAHD1 / RFU, BDP1 / Fold change vs veh, BDP1 / RFU, LRRCC1 / Fold change vs veh, LRRCC1 / RFU, ARID1A / Fold change vs veh, ARID1A / RFU, ZNF146 / Fold change vs veh, ZNF146 / RFU, ZNF330 / Fold change vs veh, ZNF330 / RFU, GPN3 / Fold change vs veh, GPN3 / RFU, C9orf123 / Fold change vs veh, C9orf123 / RFU, N4BP2L2 / Fold change vs veh, N4BP2L2 / RFU, ARFIP1 / Fold change vs veh, ARFIP1 / RFU, FAM179B / Fold change vs veh, FAM179B / RFU, BCL10 / Fold change vs veh, BCL10 / RFU, UHRF1BP1L / Fold change vs veh, UHRF1BP1L / RFU, BET1 / Fold change vs veh, BET1 / RFU, CNOT2 / Fold change vs veh, CNOT2 / RFU, ZNF268 / Fold change vs veh, ZNF268 / Fold change vs veh, ZNF507 / RFU, DGCR2 / Fold change vs veh, DGCR2 / RFU, WDSUB1 / Fold change vs veh, WDSUB1 / Fold change vs veh, HSP90B1 /// MIR3652 / RFU, ADSS / Fold change vs veh, ADSS / RFU, GK / Fold change vs veh, GK / RFU, ZNF148 / Fold change vs veh, ZNF148 / RFU, TAF9 / Fold change vs veh, TAF9 / RFU, SLC1A5 / Fold change vs veh, SLC1A5 / RFU, SLMO2 / Fold change vs veh, SLMO2 / RFU, ABCC4 / Fold change vs veh, ABCC4 / RFU, LOC101060439 /// RAP1B / Fold change vs veh, LOC101060439 /// RAP1B / RFU, RFX7 / Fold change vs veh, RFX7 / RFU, GTPBP10 / Fold change vs veh, GTPBP10 / RFU, CNEP1R1 / Fold change vs veh, CNEP1R1 / RFU, BIVM-ERCC5 /// ERCC5 / Fold change vs veh, BIVM-ERCC5 /// ERCC5 / RFU, ILF3 / Fold change vs veh, ILF3 / RFU 11762660_at / Fold change /veh 11762660_at / RFU VCAN (11757783_s_at) / Fold change /veh VCAN (11757783_s_at) / RFU DDX43 (11728927_at) / Fold change /veh DDX43 (11728927_at) / RFU KRT8 (11758188_x_at) / Fold change /veh KRT8 (11758188_x_at) / RFU NKD1 (11759106_at) / Fold change /veh NKD1 (11759106_at) / RFU SRD5A1 (11742802_a_at) / Fold change /veh SRD5A1 (11742802_a_at) / RFU TPSAB1 /// TPSB2 (11721975_s_at) / Fold change /veh TPSAB1 /// TPSB2 (11721975_s_at) / RFU GSTM3 (11746129_a_at) / Fold change /veh GSTM3 (11746129_a_at) / RFU IL23R (11737362_x_at) / Fold change /veh IL23R (11737362_x_at) / RFU TMEM51 (11727254_a_at) / Fold change /veh TMEM51 (11727254_a_at) / RFU PIWIL2 (11732686_x_at) / Fold change /veh PIWIL2 (11732686_x_at) / RFU ORM1 (11744905_x_at) / Fold change /veh ORM1 (11744905_x_at) / RFU CCDC152 (11743942_at) / Fold change /veh CCDC152 (11743942_at) / RFU ECM1 (11717891_a_at) / Fold change /veh ECM1 (11717891_a_at) / RFU IL23R (11748794_a_at) / Fold change /veh IL23R (11748794_a_at) / RFU TNFAIP8L3 (11732012_x_at) / Fold change /veh TNFAIP8L3 (11732012_x_at) / RFU MBOAT4 (11741988_at) / Fold change /veh MBOAT4 (11741988_at) / RFU 11764193_at / Fold change /veh 11764193_at / RFU TMEM53 (11763286_at) / Fold change /veh TMEM53 (11763286_at) / RFU MAGEB2 (11727129_at) / Fold change /veh MAGEB2 (11727129_at) / RFU TMEM200A (11744735_a_at) / Fold change /veh TMEM200A (11744735_a_at) / RFU CCDC152 (11751479_a_at) / Fold change /veh CCDC152 (11751479_a_at) / RFU FAM211A (11726209_a_at) / Fold change /veh FAM211A (11726209_a_at) / RFU RGS16 (11746705_a_at) / Fold change /veh RGS16 (11746705_a_at) / RFU VCAN (11755009_s_at) / Fold change /veh VCAN (11755009_s_at) / RFU RHOB (11743442_s_at) / Fold change /veh RHOB (11743442_s_at) / RFU RGS16 (11720943_a_at) / Fold change /veh RGS16 (11720943_a_at) / RFU RGS16 (11720944_at) / Fold change /veh RGS16 (11720944_at) / RFU, VPS4B / Fold change vs veh, VPS4B / RFU, CREB1 / Fold change vs veh, CREB1 / RFU, DNAJC13 / Fold change vs veh, DNAJC13 / RFU, GNAQ / Fold change vs veh, GNAQ / RFU, CDK5R1 / Fold change vs veh, CDK5R1 / RFU, ZRANB3 / Fold change vs veh, ZRANB3 / RFU, CUL4A / Fold change vs veh, CUL4A / RFU, CCNY / Fold change vs veh, CCNY / RFU, UFL1 / Fold change vs veh, UFL1 / RFU, COG3 / Fold change vs veh, COG3 / RFU, DIAPH2 / Fold change vs veh, DIAPH2 / RFU, SKA2 / Fold change vs veh, SKA2 / RFU, AFF3 / Fold change vs veh, AFF3 / RFU, LMF1 / Fold change vs veh, LMF1 / RFU, IPO11 / Fold change vs veh, IPO11 / RFU, DFFB / Fold change vs veh, DFFB / RFU, FOXP1 / Fold change vs veh, FOXP1 / RFU, CARD8 / Fold change vs veh, CARD8 / RFU, STRN3 / Fold change vs veh, STRN3 / RFU, ADK / Fold change vs veh, ADK / RFU, RASSF2 / Fold change vs veh, RASSF2 / RFU, WIPF1 / Fold change vs veh, WIPF1 / RFU, LARP1B / Fold change vs veh, LARP1B / RFU, RASA1 / Fold change vs veh, RASA1 / RFU, RB1 / Fold change vs veh, RB1 / RFU, PPFIA1 / Fold change vs veh, PPFIA1 / RFU, MAT2A / Fold change vs veh, MAT2A / RFU, CCT5 / Fold change vs veh, CCT5 / RFU, WDR92 / Fold change vs veh, WDR92 / RFU, CUX1 / Fold change vs veh, CUX1 / RFU, TTC7A / Fold change vs veh, TTC7A / RFU, TMEM135 / Fold change vs veh, TMEM135 / RFU, DEPTOR / Fold change vs veh, DEPTOR / RFU, CPM / Fold change vs veh, CPM / RFU, DNAJB6 / Fold change vs veh, DNAJB6 / RFU, CACNA2D3 / Fold change vs veh, CACNA2D3 / RFU, DTX4 / Fold change vs veh, DTX4 / RFU, TFCP2 / Fold change vs veh, TFCP2 / RFU, GMCL1 /// GMCL1P1 / Fold change vs veh, GMCL1 /// GMCL1P1 / RFU, AEBP2 / Fold change vs veh, AEBP2 / RFU, SNHG1 /// SNORD22 /// SNORD25 /// SNORD26 /// SNORD27 /// SNORD28 /// SNORD29 /// SNORD31 / Fold change vs veh, SNHG1 /// SNORD22 /// SNORD25 /// SNORD26 /// SNORD27 /// SNORD28 /// SNORD29 /// SNORD31 / Fold change (Aza/veh), C12orf56 (ProbeSet 11735607_a_at) / Fold change (ACY-1035/veh), C12orf56 (ProbeSet 11735607_a_at) / Fold change (Aza/veh), FGFR1OP (ProbeSet 11751329_s_at) / Fold change (ACY-1035/veh), FGFR1OP (ProbeSet 11751329_s_at) / Fold change (Aza/veh), VPS36 (ProbeSet 11739960_a_at) / Fold change (ACY-1035/veh), VPS36 (ProbeSet 11739960_a_at) / RFU SYPL1 (11715823_x_at) / Fold change /veh SYPL1 (11715823_x_at) / RFU IGFBP7 (11715501_s_at) / Fold change /veh IGFBP7 (11715501_s_at) / RFU REEP3 (11722064_at) / Fold change /veh REEP3 (11722064_at) / RFU IGLL1 (11728026_x_at) / Fold change /veh IGLL1 (11728026_x_at): dose or concentration left out as unconfirmed
# Conditions: ProbeSet 11734937_a_at; LIST B
smiles,measurement,value
Nc1ccc(-c2cccs2)cc1NC(=O)c1ccc2c(c1)cc(C1CC1)n2CCN1CCOCC1 [ACY-1035],"RFU, CNOT2",798.97 RFU
